Patent publication US7807712B2, “Oxy substituted chalcones as antihyperglycemic and antidyslipidemic agents” (priority 2004, dated 2010)
Where two headings read alike, the source gives them in different places.

Experiments:
[1] = system: triton WR-1339 induced hyperlipidemic rats; assay: Triton model, antidyslipidemic activity; type: in vivo, rat (Charles foster); conditions: 100 mg/kg oral; for inhibition in vivo at 100 mg/kg: Rattus norvegicus
Procedure: Male Charles foster rats weighing 200-225 g were divided into control, hyperlipidemic and hyperlipidemic plus drug treated groups containing six animals in each group. Hyperlipidemia was induced by administration of triton WR-1339 (200 mg/kg i.p.). All animals were maintained on a special pellet diet and water ad libitum. Compounds and standard drug were macerated with 0.2% aqueous gum acacia suspension. The suspension was fed orally at the dose of 100 mg/kg simultaneously with triton in drug treated group. The animals of control group received the same amount of gum acacia by similar route of administration. At the end of the experiment, after 18 h, blood was withdrawn from retro orbital plexus and plasma was used for the assay of total cholesterol, phospholipid and triglycerides.
Cholesterol was estimated using the kit provided by Roche Diagnostics. Cholesterol esters are enzymatically hydrolyzed by cholesterol esterase (CE) to cholesterol and free fatty acids. Free cholesterol, including that originally present, is then oxidized by cholesterol oxidase (CO) to cholest-4-en-3-one and hydrogen peroxide. The hydrogen peroxide combines with hydroxy benzoic acid (HBA) and 4-aminoantipyrine (4AAA) in the presence of peroxidase (POD) to form a chromophore (quinoneimine dye), which may be quantitated at 500-505 nm. The intensity of red colour formed is directly proportional to the concentration of total cholesterol in the specimen and measured spectrophotometrically (Searcy, C. L. Diagnostic Biochemistry, 1969, McGraw Hill, New York; Ellefson, R. D.; Caraway, W. T. Fundamentals of clinical chemistry, 1976, Ed Tietz N W, 506-515.)
Triglycerides were estimated using the kit provided by Roche Diagnostics. Lipoprotein lipase hydrolyses triglycerides to yield glycerol and fatty acids. Glycerol kinase converts glycerol to glycerol-3-phosphate, which is oxidized by glycerol phosphate oxidase to dihydroxy acetone phosphate and hydrogen peroxide. In the presence of peroxidase, hydrogen peroxide oxidatively couples with 4-aminoantipyrine and 4-chloro phenol to produce red quinonimine dye. The intensity of red colour formed is directly proportional to the concentration of triglycerides in the specimen and is measured by photometrically (Wahlefeld, A. W.; Bergmeyer, H. U. Ed. Methods of enzymatic analysis, 2nd English edition, New York, N.Y., Academic press inc, 1831-1840.).
Serum (0.2 mL) and perchloric acid (1.0 mL) was digested at 180° C. for 1-1.5 h till the solution became colorless. The liberated inorganic phosphate (Pi) was measured by the method of Fiske and Subbarow (Fiske, C. H.; Subbarow, V. J. Biol. Chem. 1925, 66, 375.). 1 mL of 2.5% ammonium molybdate (prepared in 5 N sulphuric acid) and 0.5 mL reducing agent (4-amino naphthol sulphonic acid, 0.2%), sodium metabisulphite (2.4% w/v in distilled water) was added to the above tubes and mixed well. The reaction mixture was […] with 2.5 mL of triple distilled water and kept at 60° C. in water bath for 20 min. For standard, an appropriate amount of potassium dihydrogen phosphate dissolved in triple distilled water containing 2-10 μg phosphorus (Pi) was run simultaneously with the experiment tubes. The optical density of the blue colour was recorded at 620 nm against reagent blank. The values of Pi were converted into phospholipid by multiplying with 25 (a constant calibrated from Pi value of lecithin).

sucrose loaded rats = assay: Sucrose loaded rat model (SLM), antihyperglycemic activity; type: in vivo, rat (Charles Foster/Wistar); conditions: 100 mg/kg oral, sucrose load 10.0 g/kg, AUC vs control, 30-120 min; for inhibition in vivo at 100 mg/kg: Rattus norvegicus, 2 h, read-out: % Fall in blood glucose levels SLM
Procedure: Male albino rats of Charles Foster/Wistar strain of average body weight 160±20 g were selected for this study. The blood glucose level of each animal was checked by glucometer using glucostrips (Boehringer Mannheim) after 16 h starvation. Animals showing blood glucose levels between 3.33 to 4.44 mM (60 to 80 mg/dl) were divided into groups of five to six animals in each. Animals of experimental group were administered suspension of the desired synthetic compound orally (made in 1.0% gum acacia) at a dose of 100-mg/kg-body weight. Animals of control group were given an equal amount of 1.0% gum acacia. A sucrose load (10.0 g/kg) was given to each animal orally exactly after 30 min post administration of the test sample/vehicle. Blood glucose profile of each rat was again determined at 30, 60, 90 and 120 min post administration of sucrose by glucometer. Food but not water was withheld from the cages during the course of experimentation. Quantitative glucose tolerance of each animal was calculated by Area Under Curve (AUC) method (Prism Software). Comparing the AUC of experimental and control groups determined the percentage antihyperglycemic activity. Statistical comparison was made by Dunnett's test.

[2] = system: streptozotocin-induced diabetic rats; assay: Sucrose-challenged streptozotocin-induced diabetic rats (STZ-S), antihyperglycemic activity; type: in vivo, rat (Sprague Dawley); conditions: 100 mg/kg oral, sucrose load 2.5 g/kg, AUC vs control
Procedure: Male albino rats of Sprague Dawley strain of body weight […] were selected for this study. Streptozotocin (Sigma, USA) was dissolved in 100 mM citrate buffer pH 4.5 and calculated amount of the fresh solution was injected to overnight fasted rats (45 mg/kg) intraperitoneally. Blood glucose level was checked 48 h later by glucostrips and animals showing blood glucose values between 144 to 270 mg/dl (8 to 15 mM) were included in the experiment and termed diabetic. The diabetic animals were divided into groups consisting of five to six animals in each group. Animals of experimental groups were administered suspension of the desired test samples orally (made in 1.0% gum acacia) at a dose of 100-mg/kg-body weight. Animals of control group were given an equal amount of 1.0% gum acacia. A sucrose load of 2.5-g/kg body weight was given after 30 minutes of compound administration. After 30 minutes of post sucrose load blood glucose level was again checked by glucostrips at 30, 60, 90, 120, 180, 240, 300 min and at 24 h, respectively. Animals not found diabetic after 24 hours post treatment of the test sample were not considered and omitted from the calculations and termed as non-responders. […] Food but not water was withheld from the cages during the experimentation. Comparing the AUC of experimental and control groups determined the percent antihyperglycemic activity. Statistical comparison between groups was made by Student's ‘t’ test.

[3] = plasma phospholipid after 18 h, read-out: % Fall in lipid levels (Triton model) PL
[4] = plasma total cholesterol after 18 h, read-out: % Fall in lipid levels (Triton model) TC
[5] = plasma triglycerides after 18 h, read-out: % Fall in lipid levels (Triton model) TG
[6] = plasma total cholesterol after 18 h
[7] = plasma triglycerides after 18 h

COc1ccc(/C=C/C(=O)c2ccc(OCC(O)CNC(C)(C)C)cc2)cc1OC (centres unmarked) [Compound 19, 4′-[3-tert-Butylamino-2-hydroxy-propoxy]-3,4-dimethoxy-chalcone]
melting point: 62 to 64 °C
inhibition in vivo at 100 mg/kg [1, 3]: 22%
inhibition in vivo at 100 mg/kg [1, 4]: 21%
inhibition in vivo at 100 mg/kg [1, 5]: 19%
inhibition in vivo at 100 mg/kg (sucrose loaded rats): 11.2%
% Fall in blood glucose levels STZ-S 5 h [2]: NIL
% Fall in blood glucose levels STZ-S 24 h [2]: NIL

COc1ccc(/C=C/C(=O)c2ccc(OCC(O)CN3CCN(c4ccccc4)CC3)cc2)cc1 (centres unmarked) [Compound 20, 4′-[2-Hydroxy-3-(4-phenylpiperazin-1-yl)-propoxy]-4-methoxy-chalcone]
melting point: 165 to 167 °C
inhibition in vivo at 100 mg/kg [1, 3]: 11%
inhibition in vivo at 100 mg/kg [1, 4]: 11%
inhibition in vivo at 100 mg/kg [1, 5]: 10%
inhibition in vivo at 100 mg/kg (sucrose loaded rats): 7.78%
% Fall in blood glucose levels STZ-S 5 h [2]: NIL
% Fall in blood glucose levels STZ-S 24 h [2]: NIL

COc1ccc(/C=C/C(=O)c2ccc(OCC(O)CNCC(C)C)cc2)cc1 (centres unmarked) [Compound 21, 4′-[3-iso-Butylamino-2-hydroxy-propoxy]-4-methoxy-chalcone]
melting point: 76 to 77 °C
inhibition in vivo at 100 mg/kg [1, 3]: 14%
inhibition in vivo at 100 mg/kg [1, 4]: 5%
inhibition in vivo at 100 mg/kg [1, 5]: 12%
inhibition in vivo at 100 mg/kg (sucrose loaded rats): 5.67%

COc1ccc(/C=C/C(=O)c2ccc(OCC(O)CNC(C)(C)C)cc2)cc1 (centres unmarked) [Compound 22, 4′-[3-tert-Butylamino-2-hydroxy-propoxy]-4-methoxy-chalcone]
melting point: 70 to 71 °C
inhibition in vivo at 100 mg/kg [1, 3]: 11%
inhibition in vivo at 100 mg/kg [1, 4]: 16%
inhibition in vivo at 100 mg/kg [1, 5]: 21%
inhibition in vivo at 100 mg/kg (sucrose loaded rats): 11.8%
% Fall in blood glucose levels STZ-S 5 h [2]: NIL
% Fall in blood glucose levels STZ-S 24 h [2]: NIL

COc1ccc(/C=C/C(=O)c2ccc(OCC(O)CNC(C)C)cc2)cc1 (centres unmarked) [Compound 23, 4′-[2-Hydroxy-3-iso-propylamino-propoxy]-4-methoxy-chalcone]
melting point: 105 to 106 °C
inhibition in vivo at 100 mg/kg [1, 3]: 12%
inhibition in vivo at 100 mg/kg [1, 4]: 17%
inhibition in vivo at 100 mg/kg [1, 5]: 22%
inhibition in vivo at 100 mg/kg (sucrose loaded rats): 1.41%

COc1ccc(/C=C/C(=O)c2ccc(OCC(O)CN3CCN(c4ccccc4OC)CC3)cc2)cc1 (centres unmarked) [Compound 24, 4′-[2-Hydroxy-3-{4-(2-methoxyphenyl)-piperazin-1-yl}-propoxy]-4-methoxy-chalcone]
melting point: 97 to 98 °C
inhibition in vivo at 100 mg/kg [1, 3]: 15%
inhibition in vivo at 100 mg/kg [1, 4]: 24%
inhibition in vivo at 100 mg/kg [1, 5]: 14%
inhibition in vivo at 100 mg/kg (sucrose loaded rats): 10.8%
% Fall in blood glucose levels STZ-S 24 h [2]: 6.18%

COc1ccc(/C=C/C(=O)c2ccc(OCC(O)CNCCc3ccc(OC)c(OC)c3)cc2)cc1 (centres unmarked) [Compound 25, 4′-[3-{2-(3,4-Dimethoxyphenyl)-ethylamino}-2-hydroxy-propoxy]-4-methoxy-chalcone]
melting point: 120 to 121 °C
inhibition in vivo at 100 mg/kg [1, 3]: 10%
inhibition in vivo at 100 mg/kg [1, 4]: 4%
inhibition in vivo at 100 mg/kg [1, 5]: 33%
% Fall in blood glucose levels SLM (sucrose loaded rats): NIL

CNCC(O)COc1ccc(C(=O)/C=C/c2ccc(OC)cc2)cc1 (centres unmarked) [Compound 26, 4′-[2-Hydroxy-3-methylamino-propoxy]-4-methoxy-chalcone]
melting point: 114 to 115 °C
inhibition in vivo at 100 mg/kg [1, 3]: 28%
inhibition in vivo at 100 mg/kg [1, 4]: 37%
inhibition in vivo at 100 mg/kg [1, 5]: 39%

COc1ccc(/C=C/C(=O)c2cccc(OCC(O)CN3CCN(c4ccccc4)CC3)c2)cc1 (centres unmarked) [Compound 28, 3′-[2-Hydroxy-3-(4-phenylpiperazin-1-yl)-propoxy]-4-methoxy-chalcone]
melting point: 153 to 154 °C
inhibition in vivo at 100 mg/kg [1, 3]: 26%
inhibition in vivo at 100 mg/kg [1, 4]: 40%
inhibition in vivo at 100 mg/kg [1, 5]: 17%
inhibition in vivo at 100 mg/kg (sucrose loaded rats): 4.41%

O=C(/C=C/c1ccc2c(c1)OCO2)c1ccc(OCC(O)CN2CCN(c3ccccc3)CC2)cc1 (centres unmarked) [Compound 33, 4′-[2-Hydroxy-3-(4-phenylpiperazin-1-yl)-propoxy]-3,4-methylenedioxy-chalcone]
melting point: 153 to 154 °C
inhibition in vivo at 100 mg/kg [1, 3]: 21%
inhibition in vivo at 100 mg/kg [1, 4]: 22%
inhibition in vivo at 100 mg/kg [1, 5]: 16%
inhibition in vivo at 100 mg/kg (sucrose loaded rats): 5.03%

COc1ccc(C=CC(=O)c2cccc(OCCCCOc3ccc(C=C4SC(=O)NC4=O)cc3)c2)cc1 [Compound 43, 4-Methoxy-3′-{4-[4-(thiazolidin-2,4-dione-5-ylidinemethyl)-phenoxy]-butoxy}-chalcone]
% Fall in lipid levels (Triton model) PL ([1]; plasma phospholipid after 18 h): 14%
% Fall in lipid levels (Triton model) TC [1, 6]: 04%
% Fall in lipid levels (Triton model) TG [1, 7]: 31%
% Fall in blood glucose levels SLM (sucrose loaded rats): NIL

COc1ccc(C=CC(=O)c2cccc(OCCCCCOc3ccc(C=C4SC(=O)NC4=O)cc3)c2)cc1 [Compound 44, 4-Methoxy-3′-{5-[4-(thiazolidin-2,4-dione-5-ylidinemethyl)-phenoxy]-pentyloxy}-chalcone]
% Fall in lipid levels (Triton model) PL ([1]; plasma phospholipid after 18 h): 13%
% Fall in lipid levels (Triton model) TC [1, 6]: 06%
% Fall in lipid levels (Triton model) TG [1, 7]: 19%
% Fall in blood glucose levels SLM (sucrose loaded rats): NIL

O=C1NC(=O)C(=Cc2ccc(OCCCCOc3cccc(C(=O)C=Cc4ccc5c(c4)OCO5)c3)cc2)S1 [Compound 45, 3,4-Methylenedioxy-3′-{4-[4-(thiazolidin-2,4-dione-5-ylidinemethyl)-phenoxy]-butoxy}-chalcone]
% Fall in lipid levels (Triton model) PL ([1]; plasma phospholipid after 18 h): 21%
% Fall in lipid levels (Triton model) TC [1, 6]: 23%
% Fall in lipid levels (Triton model) TG [1, 7]: 14%
% Fall in blood glucose levels SLM (sucrose loaded rats): 0.13%
